The target in experiment [1] is T1, VvGT16 (Vitis vinifera, UniProt F6HTJ4). As to the method: The measurements were performed under the following conditions. […] Radioactivity was determined by LSC.
The target of experiment [2] is T2, VvGT15a (Vitis vinifera, UniProt A0ABY9C1E0). The experiment is described as follows: Enantioselectivity by chiral phase SPME-GC-MS after hydrolysis of the formed glucoside. The experiment is classed as biochemical. The settings on record: racemic substrate, prolonged incubation (24 h). The protocol:
(§1) To determine the enantioselectivity of VvGT14 and VvGT15 the enantiomeric ratio of glucosidically bound citronellol and linalool was determined by enantioselective GC-MS. Following the incubation, residual citronellol and linalool were completely removed by extraction with dichloromethane. Chronellyl β-D-glucoside which remained in the aqueous phase was hydrolyzed by HCl (2 mL, 0.1 M, pH 1) for one hour at 100° C. to release citronellol (Skouroumounis and Sefton, 2000). In case of linalyl β-D-glucoside an enzymatic hydrolysis (AR 2000, citric acid buffer pH 4, 24 h) was applied due to the instability of linalool in acid solutions (Williams et al., 1982). […] After hydrolysis, citronellol and linalool were analyzed by SPME-GC-MS as described above.
(§2) GC-MS analysis was performed with a Varian GC-450 coupled to a Varian MS-240 ion-trap employing a Phenomenex Zebron ZB-WAXplus column (30 m×0.25 mm×0.25 μm, Aschaffenburg, Germany). Helium flow rate was 1 mL/min. The analysis was carried out in split mode (liquid injections) or splitless mode (SPME measurements) with 220° C. injector temperature. EI (electron impact ionization)-MS spectra were recorded from m/z 40 to 300 (ionization energy 70 eV; trap temperature 170° C.). The oven temperature program was 60° C. (3 min), 10° C./min up to 250° C. (5 min). In case of SPME measurements, liberated aglycones were isolated for 10 min at 60° C. using a fiber coated with a 85 μm film of polyacrylate (SUPELCO, Bellefonte, USA). After extraction the SPME fiber was desorbed for 10 min at 250° C. in the injection port of the GC-MS system and the column oven program was carried out as described above. Enantioselective GC-MS analysis was performed with a Varian GC-450 coupled to a Varian MS-240 ion-trap. The column was a DiAcB (heptakis-(2,3-di-O-acetyl-6-O-tert.-butyldimethylsilyl)-B-cyclodextrin), 26 m×0.32 mm i.d. with a 0.1 μm film. […] GC-MS measurements were recorded in full scan mode. Selected ion monitoring (SIM) mode was used for quantification.

Experiment [3] has as its target T3, VvGT14a (Vitis vinifera, UniProt F6H0R6). The experiment is described as above. The experiment is classed as biochemical. The following applies: racemic substrate, prolonged incubation (24 h). The protocol: as §1, §2
A further experiment deals with VvGT15b (Vitis vinifera, UniProt A0ABY9C1E0). The experiment in a line: Substrate screening, radiochemical analysis with UDP-[14C]glucose. It is filed as biochemical. As to the method:
(§3) In the initial screening, each reaction mixture (200 μL in total) contained Tris-HCl buffer (100 mM, pH 8, 10 mM 2-mercaptoethanol), 37 pmol UDP-[^14C]glucose (0.01 μCi, Biotrend, Köln, Germany), substrate (50 μL of a 1 mg/mL stock solution) and purified protein (0.5-0.8 μg/μL). […] The organic phase was mixed with 2 mL Pro Flow P+ cocktail (Meridian Biotechnologies Ltd., Epsom, UK) and radioactivity was determined by liquid scintillation counting (LSC, Tri-Carb 2800TR, Perkin Elmer, Waltham Mass., USA). Additionally, negative controls without substrate were performed.
(§4) The recombinant proteins were expressed with an N-terminal GST-tag, affinity purified and verified by SDS-PAGE and Western Blot using GST-specific antibody.

For experiment [4], the target named is T1, VvGT16. The experiment is described as above. The experiment is classed as biochemical. As to the method:
as §3, §4

Experiment [5] concerns the target T2, VvGT15a. The description is as above. The experiment is classed as biochemical. The protocol: as §3, §4
In a further experiment the target is VvGT15c (Vitis vinifera, UniProt A0ABY9C1E0). The description is as above. The experiment is classed as biochemical. The protocol: as §3, §4
Experiment [6] concerns the target T3, VvGT14a. Described as above. The experiment is classed as biochemical. As to the method: as §3, §4
The target in experiment [7] is T3, VvGT14a. The following applies: VvGT14a versus UGT85B1.
Setting [8] is: UDP-glucose fixed 512.5 μM (for UDP-glucose: geraniol fixed 1.25 mM), Tris-HCl pH 8.5, 30° C.

T1 sequence (F6HTJ4 entry or part of it): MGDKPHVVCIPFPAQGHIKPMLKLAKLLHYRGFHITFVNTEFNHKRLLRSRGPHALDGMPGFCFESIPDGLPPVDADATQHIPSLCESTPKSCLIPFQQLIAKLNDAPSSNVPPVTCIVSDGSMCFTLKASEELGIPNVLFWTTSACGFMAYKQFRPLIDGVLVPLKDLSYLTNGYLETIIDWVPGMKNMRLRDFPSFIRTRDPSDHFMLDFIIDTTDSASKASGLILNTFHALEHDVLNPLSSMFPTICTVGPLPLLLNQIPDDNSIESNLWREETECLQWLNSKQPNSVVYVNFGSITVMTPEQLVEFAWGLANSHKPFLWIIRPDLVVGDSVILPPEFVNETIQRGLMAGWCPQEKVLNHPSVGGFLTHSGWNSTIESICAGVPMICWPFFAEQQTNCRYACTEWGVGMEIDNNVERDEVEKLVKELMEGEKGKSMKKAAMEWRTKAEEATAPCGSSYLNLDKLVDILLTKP
T3 sequence (F6H0R6 entry or part of it): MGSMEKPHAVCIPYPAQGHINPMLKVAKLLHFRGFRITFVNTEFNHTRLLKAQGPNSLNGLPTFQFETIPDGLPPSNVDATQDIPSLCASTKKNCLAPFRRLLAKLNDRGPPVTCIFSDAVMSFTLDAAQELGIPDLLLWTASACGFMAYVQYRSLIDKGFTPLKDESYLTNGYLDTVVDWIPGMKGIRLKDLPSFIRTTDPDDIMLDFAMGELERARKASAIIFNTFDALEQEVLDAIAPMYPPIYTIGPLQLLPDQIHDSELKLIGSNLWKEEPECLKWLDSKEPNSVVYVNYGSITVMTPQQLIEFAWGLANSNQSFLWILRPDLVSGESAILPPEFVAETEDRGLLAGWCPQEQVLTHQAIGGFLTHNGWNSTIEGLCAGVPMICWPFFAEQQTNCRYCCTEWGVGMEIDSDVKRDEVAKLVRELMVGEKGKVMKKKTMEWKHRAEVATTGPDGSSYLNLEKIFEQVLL
T2 sequence (A0ABY9C1E0 entry or part of it): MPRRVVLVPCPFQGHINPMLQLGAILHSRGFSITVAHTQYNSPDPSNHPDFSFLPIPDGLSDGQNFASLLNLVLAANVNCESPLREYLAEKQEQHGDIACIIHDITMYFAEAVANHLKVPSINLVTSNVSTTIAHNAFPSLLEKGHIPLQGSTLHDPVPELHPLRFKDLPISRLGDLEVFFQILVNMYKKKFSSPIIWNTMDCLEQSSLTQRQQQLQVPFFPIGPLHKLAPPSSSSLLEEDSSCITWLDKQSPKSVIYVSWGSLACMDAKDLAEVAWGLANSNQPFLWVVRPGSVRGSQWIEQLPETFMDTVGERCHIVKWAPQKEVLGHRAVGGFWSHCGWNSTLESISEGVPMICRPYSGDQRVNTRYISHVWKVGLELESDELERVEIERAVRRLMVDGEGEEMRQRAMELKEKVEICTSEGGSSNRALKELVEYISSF
VvGT15c, sequence (A0ABY9C1E0 entry or part of it): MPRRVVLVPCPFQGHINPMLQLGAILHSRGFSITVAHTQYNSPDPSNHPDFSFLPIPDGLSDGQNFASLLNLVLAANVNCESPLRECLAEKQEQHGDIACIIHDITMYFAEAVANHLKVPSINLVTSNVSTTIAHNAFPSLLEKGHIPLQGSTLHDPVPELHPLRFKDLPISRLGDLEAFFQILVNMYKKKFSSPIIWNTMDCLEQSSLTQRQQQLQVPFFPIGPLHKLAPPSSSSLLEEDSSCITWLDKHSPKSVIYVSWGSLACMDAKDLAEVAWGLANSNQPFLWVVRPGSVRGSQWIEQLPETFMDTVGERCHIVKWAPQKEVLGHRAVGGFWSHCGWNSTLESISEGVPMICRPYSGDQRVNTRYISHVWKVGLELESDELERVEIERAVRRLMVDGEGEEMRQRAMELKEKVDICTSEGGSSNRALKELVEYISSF

Broadly, the Km is the substrate concentration at which the rate is half of its maximum. What is called kcat is the maximal rate divided by the concentration of active sites. On to `CC(C)=CCCC(C)CCO` (racemic) [citronellol (rac), (R,S)-3,7-dimethyl-6-octen-1-ol], for which the Km on VvGT16 [1] (setting [8]) was determined as 108 ± 2.5 µM. Besides, the turnover number (kcat) at VvGT16 [1] (setting [8]) came to 0.008 s⁻¹. Further, the “transformation of R- and S-citronellol (in words)” value at VvGT16 [1] (radiochemical assays) is recorded as “same efficiency”. In addition, the “enantiomeric preference, aglycone liberated from the formed glucoside” value at VvGT15a [2] and at VvGT14a [3] was “no enantio-discrimination” throughout. Further, the “conversion as substrate (in words)” value at VvGT15b is listed as “glucosylated primarily”; at VvGT16 [4], “transformed”; at VvGT15a [5], “glucosylated primarily”; on VvGT15c it was “glucosylated primarily”; on VvGT14a [6], “preferred”. In addition, on VvGT14a [7], the “kcat/KM of VvGT14a higher than the value for UGT85B1 from Sorghum bicolor” value is 4 fold.
Consider `C=CC(C)(O)CCC=C(C)C` (racemic) [linalool (rac), (R,S)-3,7-dimethyl-1,6-octadien-3-ol], for which, on VvGT14a [3], the “enantiomeric preference, aglycone liberated from the formed glucoside” value is recorded as “slight enrichment of the R-enantiomer”. The “conversion as substrate (in words)” value on VvGT14a [6] is given as “catalytic activity”.

The record behind these values is patent publication US20170204380A1, “GLYCOSYL TRANSFERASES AND THEIR USES” (TECHNISCHE UNIVERSITAT MUNCHEN, priority 2014, published 2017).
